# PubChem BioAssay (NCI)
#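 Each compound was tested at five concentrations against cells in 96-well plates for 48 hours. The concentration for 50% growth inhibition is given as GI50. TGI: total growth inhibition.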
# Assays:
# Assay in all cases: growth of human tumour cells (NCI), 48 h
# [1] = tested on: COLO 205 colon
# [2] = tested on: SK-MEL-28 melanoma
# [3] = tested on: SF-268 CNS
# [4] = tested on: SK-MEL-2 melanoma
# [5] = tested on: 786-0 renal
# [6] = tested on: EKVX NSCLC
# [7] = tested on: SN12C renal
# [8] = tested on: SNB-75 CNS
# [9] = tested on: HCC-2998 colon
# [10] = tested on: HS 578T breast
SMILES,TGI [1] [µM],TGI [2],TGI [3],TGI [4] [µM],TGI [5],TGI [6],TGI [7],TGI [8],TGI [9] [µM],TGI [10],GI50 [2],GI50 [10],GI50 [3],GI50 [5],GI50 [6],GI50 [7],GI50 [8],GI50 [1] [µM],GI50 [4] [µM],GI50 [9] [µM]
CC(C)=CC(=O)Cc1nc2ccccc2[nH]c1=O,> 100,> 100 µM,> 100 µM,> 100,> 100 µM,> 100 µM,> 100 µM,> 100 µM,> 100,–,–,–,–,–,–,–,–,–,–,–
O=C(Nc1ccc(C(F)(F)F)cc1[N+](=O)[O-])C(=O)C(C(=O)c1ccc2ccccc2c1)C1OC(=O)c2ccccc21 (configuration not stated),32.7,18 µM,52 µM,29.9,19.5 µM,21.2 µM,33.5 µM,23 µM,18.3,–,–,–,–,–,–,–,–,–,–,–
Cc1cc2c(cn1)C(=O)OCC2,–,> 100 µM,> 100 µM,–,> 100 µM,> 100 µM,> 100 µM,> 100 µM,> 100,–,–,–,–,–,–,–,–,–,–,–
CCOC(=O)/C(C#N)=C(O)/C(=C/c1ccccc1Cl)NC(=O)c1ccccc1,> 100,> 100 µM,> 100 µM,–,> 100 µM,> 100 µM,> 100 µM,> 100 µM,> 100,–,–,–,–,–,–,–,–,–,–,–
CCc1ccccc1NC(=O)CCc1nc(=S)[nH][nH]1,> 100,> 100 µM,> 100 µM,> 100,> 100 µM,–,> 100 µM,> 100 µM,> 100,–,–,–,–,–,–,–,–,–,–,–
CC1(C)CCSC(/C=C/c2ccccc2)=N1,–,43 µM,80.3 µM,28.8,25.6 µM,63.7 µM,–,–,–,> 100 µM,–,–,–,–,–,–,–,–,–,–
O=C(CC(=O)Nc1ccc(Cl)cc1)NNCC(=O)Nc1nc(-c2ccccc2)cs1,> 100,> 100 µM,> 100 µM,–,> 100 µM,> 100 µM,> 100 µM,> 100 µM,> 100,–,–,–,–,–,–,–,–,–,–,–
Cc1cc2c(C(C)C)c(O)c(O)c3coc(/c1=c1/c(C)cc4c(C(C)C)c(=O)c(=O)c5coc1c45)c32,5.34,22.2 µM,24.1 µM,17.9,22.1 µM,16.4 µM,23.7 µM,23.1 µM,14.8,–,–,–,–,–,–,–,–,–,–,–
O=c1c2cc(Br)ccc2oc2ccc(Br)cc12,> 100,> 100 µM,> 100 µM,> 100,> 100 µM,–,> 100 µM,> 100 µM,> 100,–,–,–,–,–,–,–,–,–,–,–
CN1C(c2ccccc2)CC(=Nc2ccccc2)CC1c1ccccc1 (configuration not stated),22.8,23.2 µM,28.7 µM,–,27.7 µM,56.5 µM,–,50.4 µM,–,–,–,–,–,–,–,–,–,–,–,–
OCCN(CO)CN(CN(CO)CCO)c1nc(N(CN(CO)CCO)CN(CO)CCO)nc(N(CN(CO)CCO)CN(CO)CCO)n1,–,1.88 ng/mL,2.93 ng/mL,–,4.6 ng/mL,5.03 ng/mL,6.06 ng/mL,2.41 ng/mL,–,45.1 ng/mL,1.05 ng/mL,1.74 ng/mL,1.35 ng/mL,1.49 ng/mL,1.42 ng/mL,1.49 ng/mL,0.723 ng/mL,–,–,–
COc1cc(C)cc2c1OC(c1ccccc1)CC2=O (configuration not stated),> 100,> 100 µM,> 100 µM,> 100,> 100 µM,> 100 µM,> 100 µM,> 100 µM,> 100,–,> 100 µM,–,> 100 µM,> 100 µM,> 100 µM,> 100 µM,> 100 µM,> 100,> 100,> 100
N=C(c1ccccc1)N1CCCCC1,> 100,> 100 µM,> 100 µM,> 100,> 100 µM,> 100 µM,> 100 µM,> 100 µM,> 100,–,–,–,–,–,–,–,–,–,–,–
[N-]=[N+]=Nc1ncc(-c2ccc(C(F)(F)F)cc2)c(NC2CCCCCC2)n1,> 10,> 10 µM,> 10 µM,> 10,> 10 µM,–,> 10 µM,> 10 µM,> 10,–,> 10 µM,–,> 10 µM,> 10 µM,–,> 10 µM,> 10 µM,> 10,> 10,> 10
COc1cc2c(cc1OC)-c1c(cnn1C1OC(COC(C)=O)C(OC(C)=O)C(OC(C)=O)C1OC(C)=O)CC2 (configuration not stated),> 100,> 100 µM,> 100 µM,> 100,> 100 µM,> 100 µM,–,98.2 µM,–,–,–,–,–,–,–,–,–,–,–,–
C/C(=N\NC(=S)N(C)C)c1ncc[nH]1,–,> 100 µM,> 100 µM,70.9,5.67 µM,> 100 µM,66.5 µM,85.9 µM,38.6,–,–,–,–,–,–,–,–,–,–,–
COc1cc2c(cc1OCCCCCOc1cc(-c3ccc(F)cc3)nc(C)n1)N=C[C@@H]1CCCN1C2=O,7.64,> 79.8 µM,> 65.2 µM,> 68.7,> 67.5 µM,> 81 µM,> 71.2 µM,> 100 µM,–,> 81.2 µM,> 46.2 µM,> 47.5 µM,> 32.5 µM,> 44.9 µM,> 50.1 µM,> 44.2 µM,> 100 µM,4.32,> 48.3,–
O=C(O)C(/C=C/c1ccco1)=N\Nc1nc(-c2ccc(Cl)cc2)cs1,45.8,> 50 µM,> 50 µM,24.8,> 50 µM,> 50 µM,> 50 µM,> 50 µM,> 50,–,25.7 µM,–,11.1 µM,14.3 µM,17.1 µM,13.2 µM,23.1 µM,12.5,9.45,14.2
COc1ccccc1NC(=O)CC(=O)n1nc(C)c(N=Nc2ccccc2F)c1C,> 100,> 100 µM,> 93.3 µM,> 100,> 100 µM,> 100 µM,> 100 µM,28.3 µM,> 100,–,–,–,–,–,–,–,–,–,–,–
CCCOc1ccc(/C=C\c2cc(OC)c(OC)c(OC)c2)cc1,> 100,> 100 µM,> 100 µM,–,> 100 µM,> 100 µM,> 100 µM,> 100 µM,–,–,–,–,–,–,–,–,–,–,–,–
CCCCOC(=O)/C(CC(=O)C=C(C)C)=N\NS(=O)(=O)c1ccc(C)cc1,> 100,> 100 µM,> 100 µM,> 100,> 100 µM,> 100 µM,> 100 µM,> 100 µM,> 100,–,–,–,–,–,–,–,–,–,–,–

SMILES,TGI [1] [µM],TGI [2],TGI [3],TGI [4] [µM],TGI [5],TGI [6],TGI [7],TGI [8],TGI [9] [µM],TGI [10],GI50 [2],GI50 [10],GI50 [3],GI50 [5],GI50 [6],GI50 [7],GI50 [8],GI50 [1] [µM],GI50 [4] [µM],GI50 [9] [µM]
Nc1cc(N)c2nc(-c3ccccc3)c(Nc3ccc(F)cc3)nc2c1,55.9,39.3 µM,41 µM,> 100,54.3 µM,30 µM,33.9 µM,41.9 µM,–,58.8 µM,20.4 µM,19.1 µM,13.2 µM,17.4 µM,12 µM,15.6 µM,20.8 µM,20.3,29.8,–
CCCCCCCCCCCCCCCCC(C(=O)O)C(O)(CC(=O)O)C(=O)O (configuration not stated),35,59.1 µM,70.3 µM,41.4,> 100 µM,39.3 µM,53.6 µM,43.8 µM,–,58.6 µM,–,–,–,–,–,–,–,–,–,–
CC(=O)/C=C1/c2ccccc2N(C(C)=O)C1O (configuration not stated),> 100,> 100 µM,–,> 100,> 100 µM,> 100 µM,> 100 µM,> 100 µM,> 100,–,–,–,–,–,–,–,–,–,–,–
O=C(CNC(=O)c1cccc2ccccc12)Nc1ccccc1Oc1cccc(O)c1,> 25,> 25 µM,> 25 µM,–,> 25 µM,> 25 µM,> 25 µM,> 25 µM,> 25,> 25 µM,> 25 µM,5.79 µM,20.9 µM,9.93 µM,8.82 µM,> 25 µM,3.3 µM,14.7,–,> 25
O=c1cc/c(=N\Nc2ccccc2)c(=O)/c1=N/Nc1ccccc1,> 50,–,> 50 µM,> 50,> 50 µM,> 50 µM,> 50 µM,> 50 µM,–,–,–,–,> 50 µM,> 50 µM,> 50 µM,> 50 µM,> 50 µM,> 50,> 50,–
CC1C(=O)N=C2C(=CN(Cc3ccccc3)c3ccccc32)C(=O)N1C (configuration not stated),> 100,> 100 µM,> 100 µM,> 100,> 100 µM,–,> 100 µM,> 100 µM,> 100,–,–,–,–,–,–,–,–,–,–,–
Cc1ccccc1C(C#N)/C(=N/NC(=O)c1cc2ccccc2cc1O)C(=O)Nc1cccc(Cl)c1 (configuration not stated),72.5,> 100 µM,90.3 µM,76,> 100 µM,> 100 µM,> 100 µM,35.6 µM,78.5,–,–,–,–,–,–,–,–,–,–,–
c1ccc(-c2nc(Nc3ccc(-c4nc5ccccc5[nH]4)cc3)nc(N3CCOCC3)n2)cc1,3.13,3.09 µM,3.24 µM,3.59,1.25 µM,3.42 µM,3.83 µM,3.15 µM,–,6.04 µM,1.56 µM,1.89 µM,1.64 µM,0.257 µM,1.59 µM,1.74 µM,1.63 µM,1.41,1.97,–
O=C(O)Cc1cc(=O)oc2cc(O)c(Cl)cc12,> 100,> 100 µM,> 100 µM,> 100,> 100 µM,> 100 µM,> 100 µM,> 100 µM,> 100,–,–,–,–,–,–,–,–,–,–,–
COC(=O)c1c/c(=N\NC(=O)CC(=O)Nc2ccccc2Cl)c2ccccc2o1,> 100,> 100 µM,> 100 µM,> 100,> 100 µM,> 100 µM,> 100 µM,> 100 µM,> 100,–,–,–,–,–,–,–,–,–,–,–
CCCOc1ccc(/C=C/c2cc(OC)c(OC)c(OC)c2)cc1,2.42,> 100 µM,> 100 µM,> 100,> 56.3 µM,> 100 µM,> 74 µM,0.603 µM,> 100,–,–,–,–,–,–,–,–,–,–,–
COC(=O)c1nc(-c2ccc(Cl)c(Cl)c2)nc2ccccc12,–,> 100 µM,> 100 µM,> 100,47.8 µM,> 100 µM,> 100 µM,11.3 µM,> 100,–,–,–,–,–,–,–,–,–,–,–
CCNC(=O)C(O)C1(O)CCC2[C@@H]3CCC4=CC(=O)C=C[C@]4(C)C3[C@@H](O)C[C@@]21C (some centres not stated),> 100,> 100 µM,> 79.9 µM,> 100,> 100 µM,> 100 µM,> 100 µM,> 100 µM,> 100,–,–,–,–,–,–,–,–,–,–,–
N#CCCc1nc2ccc(Br)cc2c(=O)n1-c1ccc(O)c([N+](=O)[O-])c1,47.9,34.8 µM,63.1 µM,34.7,43.2 µM,74.3 µM,38.6 µM,83.2 µM,37.4,–,–,–,–,–,–,–,–,–,–,–
CCOC(=O)c1sc(=S)c2c(C(=O)c3ccccc3)c(C(=O)c3ccccc3)sc2c1C(=O)OCC,45.6,> 100 µM,71.8 µM,48.4,> 100 µM,52.2 µM,19.2 µM,> 100 µM,–,61.1 µM,25.3 µM,3.54 µM,3.55 µM,6.8 µM,4.94 µM,3.16 µM,22.6 µM,15.8,3.51,–
Clc1ccc(C2=Nc3ccccc3SC(c3ccc(Cl)c(Cl)c3)C2)c(Cl)c1 (configuration not stated),35,30.3 µM,19.9 µM,31.5,27.6 µM,33.6 µM,33.1 µM,34.6 µM,27.8,–,–,–,–,–,–,–,–,–,–,–
O=[N+]([O-])c1ccc(Cc2nc3ccccc3s2)cc1,> 100,> 100 µM,> 100 µM,> 100,> 100 µM,> 100 µM,> 100 µM,> 100 µM,> 100,–,–,–,–,–,–,–,–,–,–,–
CSC(=S)N(C)c1nc(=[N+](C)C)ss1,–,> 100 µM,> 100 µM,> 100,> 100 µM,> 100 µM,> 100 µM,> 100 µM,> 100,–,–,–,–,–,–,–,–,–,–,–
O=S(=O)(O)C(F)(F)C(F)(F)C(F)(F)C(F)(F)F,> 100,–,> 100 µM,> 100,> 100 µM,> 100 µM,> 100 µM,> 100 µM,> 100,–,–,–,–,–,–,–,–,–,–,–
Cc1ccc2sc3cc(=O)cc(C)c-3nc2c1,> 100,> 100 µM,> 100 µM,> 100,> 100 µM,> 100 µM,> 100 µM,> 100 µM,> 100,–,–,–,–,–,–,–,–,–,–,–
